In publication PMC9930781, “Design, synthesis, docking, and anticancer evaluations of new thiazolo[3,2-a] pyrimidines as topoisomerase II inhibitors” (Journal of Enzyme Inhibition and Medicinal Chemistry, 2023):
Like-named read-outs stand apart in the source and are kept apart here.

Assays:
[1] = test system: A549 non-small cell lung cancer (NSCLC) cell line; assay: MTT cytotoxicity assay, A549; conditions: Homo sapiens, A549, 24 h
Description: (§1) The MTT test was used to evaluate the inhibitory effects of the substances on cell proliferation in the aforementioned cell lines. This colorimetric assay targets the mitochondrial succinate dehydrogenase of living cells to change yellow tetrazolium bromide (MTT) to a purple formazan derivative. […] Then, the cells were incubated for 24 h and exposed to various chemical concentrations. 20 μL of a 5 mg/mL MTT solution was applied after a 24-h drug treatment period and incubated for 4 h. To dissolve the produced purple formazan, each well receives 100 μL of dimethyl sulfoxide (DMSO). […] The formula for calculating the relative percentage of cell viability was (A570 of treated samples/A570 of the untreated sample) × 100.

[2] = test system: A498 renal cell carcinoma cell line; assay: MTT cytotoxicity assay, A498; conditions: Homo sapiens, A498, 24 h
Description: as §1

[3] = molecular target: human topoisomerase II (Homo sapiens, UniProt P11388); assay: DNA Topo II inhibition (kDNA decatenation) assay; format: biochemical; conditions: for IC50: kDNA decatenation, four concentrations 0.1-100 µM, mean ± SD of two independent assays
Description: The ATP-dependent decatenation of kinetoplast DNA (kDNA) obtained from Crithidia fasciculata, which consists of a network of numerous minicircles (2.3 Kb) and some maxicircles, was used to measure topoisomerase II inhibition. Reactions took place in 20 μL and comprised topoisomerase II, 200–300 ng of kDNA, and 120 mM KCl with 50 mM Tris-HCl, pH 8, 10 mM MgCl2, 0.5 mM ATP, and 0.5 mM dithiothreitol. In preliminary tests, the quantity of topoisomerase II (5 units) was changed to decatenate almost 100% of the kDNA under these assay circumstances. […] The products in the reaction mixture were separated by a 1% agarose gel after the reaction was complete and then could be seen after being stained with ethidium bromide (0.2 μg/mL). The gels were run at 100 V for about 40 min and visualised under UV transillumination.
This assay is based on the fact that human Topo II can decatenate interlinked double-stranded DNA molecules.

[4] = test system: MCF7 breast cancer cell line; assay: MTT cytotoxicity assay, MCF7; conditions: MCF7, MTT
Description: as §1
The newly prepared compounds were screened against three cancer cell lines: namely, breast cancer cell line MCF7, non-small cell lung cancer (NSCLC) cell line A549, and renal cancer cell line A498, using the MTT colorimetric assay.

[5] = read-out: Cytotoxicity IC50 A549± SD, MTT, A549, 24 h treatment, mean ± SD of two independent assays
[6] = read-out: Cytotoxicity IC50 A498± SD, MTT, A498, 24 h treatment, mean ± SD of two independent assays

human topoisomerase II, sequence (P11388 whole entry): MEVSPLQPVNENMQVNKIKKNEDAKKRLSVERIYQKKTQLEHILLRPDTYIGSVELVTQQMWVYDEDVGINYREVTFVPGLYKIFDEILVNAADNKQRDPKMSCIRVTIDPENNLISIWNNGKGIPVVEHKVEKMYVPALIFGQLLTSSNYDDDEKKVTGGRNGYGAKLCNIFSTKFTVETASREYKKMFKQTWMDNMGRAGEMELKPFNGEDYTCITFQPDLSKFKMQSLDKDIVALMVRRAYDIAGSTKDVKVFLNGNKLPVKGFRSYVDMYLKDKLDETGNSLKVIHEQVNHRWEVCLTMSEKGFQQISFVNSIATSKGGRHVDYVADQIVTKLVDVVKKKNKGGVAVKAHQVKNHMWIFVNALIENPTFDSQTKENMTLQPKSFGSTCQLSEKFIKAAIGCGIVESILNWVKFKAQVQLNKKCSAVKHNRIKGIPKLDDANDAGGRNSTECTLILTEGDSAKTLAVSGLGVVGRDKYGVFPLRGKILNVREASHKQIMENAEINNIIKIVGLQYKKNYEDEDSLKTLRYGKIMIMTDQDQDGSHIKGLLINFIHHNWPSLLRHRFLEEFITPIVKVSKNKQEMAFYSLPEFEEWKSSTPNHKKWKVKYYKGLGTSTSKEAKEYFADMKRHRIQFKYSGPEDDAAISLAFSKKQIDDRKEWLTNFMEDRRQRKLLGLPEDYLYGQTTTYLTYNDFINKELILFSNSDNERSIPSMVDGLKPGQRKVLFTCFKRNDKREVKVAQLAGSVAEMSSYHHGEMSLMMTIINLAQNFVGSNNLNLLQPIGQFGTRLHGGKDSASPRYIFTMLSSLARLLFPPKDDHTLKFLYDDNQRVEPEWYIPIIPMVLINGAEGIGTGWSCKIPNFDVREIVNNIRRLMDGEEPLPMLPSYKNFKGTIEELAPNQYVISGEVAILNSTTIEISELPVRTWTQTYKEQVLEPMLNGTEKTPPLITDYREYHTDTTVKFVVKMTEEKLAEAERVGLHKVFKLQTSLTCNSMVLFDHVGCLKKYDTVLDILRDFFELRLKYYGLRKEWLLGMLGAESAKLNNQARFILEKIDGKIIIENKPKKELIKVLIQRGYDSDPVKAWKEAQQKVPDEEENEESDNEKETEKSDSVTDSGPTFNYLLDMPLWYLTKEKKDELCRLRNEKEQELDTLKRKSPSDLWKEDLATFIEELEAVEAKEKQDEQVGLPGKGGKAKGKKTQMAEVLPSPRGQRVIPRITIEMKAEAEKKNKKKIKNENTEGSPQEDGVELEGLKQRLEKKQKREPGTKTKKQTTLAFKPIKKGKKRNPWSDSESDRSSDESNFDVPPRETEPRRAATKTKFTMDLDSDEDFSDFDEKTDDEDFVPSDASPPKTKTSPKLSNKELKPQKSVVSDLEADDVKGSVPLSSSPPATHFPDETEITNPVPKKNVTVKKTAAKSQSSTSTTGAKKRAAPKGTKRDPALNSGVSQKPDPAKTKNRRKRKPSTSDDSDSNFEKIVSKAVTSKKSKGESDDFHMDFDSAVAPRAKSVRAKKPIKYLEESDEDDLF

| melting point [°C] | %inh TOPO II ([3]; conc 0.1 (μM)) [%] | %inh TOPO II ([3]; conc 1 (μM)) [%] | %inh TOPO II ([3]; conc 10 (μM)) [%] | %inh TOPO II ([3]; conc 100 (μM)) [%] | IC50 [3] [nM] | Compound | IC50 [1, 5] [nM] | IC50 [2, 6] [nM] | other results |
| --- | --- | --- | --- | --- | --- | --- | --- | --- | --- |
| 172 to 174 | – | – | – | – | – | CCOC(=O)C1=C(C)N=C2SC=C(N)N2C1c1ccc(OC)cc1OC (stereo not shown) [Compound 2, ethyl 3-amino-5–(2,4-dimethoxyphenyl)-7-methyl-5H-thiazolo[3,2-a] pyrimidine-6-carboxylate] | 23 | 332 | – |
| 195 to 197 | – | – | – | – | – | CCOC(=O)C1=C(C)N=C2SCC(=O)N2C1c1ccc(OC)cc1OC (stereo not shown) [Compound 3a, Ethyl 5–(2,4-dimethoxyphenyl)-7-methyl-3-oxo-3,5-dihydro-5H-thiazolo[3,2-a] pyrimidine-6-carboxylate] | 93 | 73 | – |
| 175 to 177 | 19 | 30 | 48 | 80 | 6140 ± 360 | CCOC(=O)C1=C(C)N=c2sc(=Cc3ccc(OC)cc3)c(=O)n2C1c1ccc(OC)cc1OC (stereo not shown) [Compound 3b, Ethyl 5–(2,4-dimethoxyphenyl)-2–(4-methoxybenzylidene)-7-methyl-3-oxo-2,3-dihydro-5H-thiazolo[3,2-a]pyrimidine-6-carboxylate] | 24 | 46 | – |
| – | 31 | 45 | 63 | 89 | 1390 ± 80 | CCOC(=O)C1=C(C)N=c2sc(=Cc3ccc(OC)cc3OC)c(=O)n2C1c1ccc(OC)cc1OC (stereo not shown) [Compound 3c, Ethyl 2–(2,4-dimethoxybenzylidene)-5–(2,4-dimethoxyphenyl)-7-methyl-3-oxo-2,3-dihydro-5H-thiazolo[3,2-a]pyrimidine-6-carboxylate] | 19 | 9 | – |
| 190 to 192 | 28 | 41 | 59 | 85 | 2210 ± 130 | CCOC(=O)C1=C(C)N=c2sc(=Cc3cc(OC)c(OC)c(OC)c3)c(=O)n2C1c1ccc(OC)cc1OC (stereo not shown) [Compound 3d, Ethyl 5–(2,4-dimethoxyphenyl)-7-methyl-3-oxo-2–(3,4,5-trimethoxybenzylidene)-2,3-dihydro-5H-thiazolo[3,2-a]pyrimidine-6-carboxylate] | 12 | 4 | – |
| 150 to 152 | – | – | – | – | – | CCOC(=O)C1=C(C)N=C2SC=C(NC(=O)c3ccc(Cl)cc3)N2C1c1ccc(OC)cc1OC (stereo not shown) [Compound 4a, Ethyl 3–(4-chlorobenzamido)-5–(2,4-dimethoxyphenyl)-7-methyl-5H-thiazolo[3,2-a]pyrimidine-6-carboxylate] | – | – | – |
| 150 to 152 | – | – | – | – | – | CCOC(=O)C1=C(C)N=C2SC=C(NC(=O)CCl)N2C1c1ccc(OC)cc1OC (stereo not shown) [Compound 5, ethyl 3–(2-chloroacetamido)-5–(2,4-dimethoxyphenyl)-7-methyl-5H-thiazolo[3,2-a]pyrimidine-6-carboxylate] | – | – | – |
| – | 26 | 42 | 67 | 83 | 1880 ± 110 | CCOC(=O)C1=C(C)N=C2SC=C(NC(=O)CN3CCN(CC)CC3)N2C1c1ccc(OC)cc1OC (stereo not shown) [Compound 6a] | 8 | 2 | – |
| – | 28 | 44 | 67 | 88 | 1510 ± 90 | CCOC(=O)C1=C(C)N=C2SC=C(NC(=O)CN3CCOCC3)N2C1c1ccc(OC)cc1OC (stereo not shown) [Compound 6b] | 6 | 10 | – |
| – | 20 | 34 | 57 | 84 | 3560 ± 210 | CCOC(=O)C1=C(C)N=C2SC=C(NC(=O)Nc3ccc(Cl)cc3)N2C1c1ccc(OC)cc1OC (stereo not shown) [Compound 7a, Ethyl 3–(3-(4-chlorophenyl)ureido)-5–(2,4-dimethoxyphenyl)-7-methyl-5H-thiazolo[3,2-a]pyrimidine-6-carboxylate] | – | – | – |
| – | 28 | 52 | 71 | 88 | 1050 ± 60 | CCOC(=O)C1=C(C)N=C2SC=C(NC(=O)Nc3ccc(Cl)c(C(F)(F)F)c3)N2C1c1ccc(OC)cc1OC (stereo not shown) [Compound 7b, Ethyl 3–(3-(4-chloro-3-(trifluoromethyl)phenyl)ureido)-5–(2,4-dimethoxyphenyl)-7-methyl-5H-thiazolo[3,2-a]pyrimidine-6-carboxylate] | 19 | 9 | – |
| – | – | – | – | – | – | Ethyl 5–(2,4-dimethoxyphenyl)-7-methyl-3-((2-oxo-2-(piperazin-1-yl)ethyl)amino)-5H-thiazolo[3,2-a]pyrimidine-6-carboxylate [Compound 6c] | – | – | % viability ([4]; 0.4ug): 77.067%; % viability ([4]; 1.6ug): 70.045%; % viability ([4]; 6.3ug): 60.702%; % viability ([4]; 25ug): 51.13%; % viability ([4]; 100ug): 43.771% |
| – | – | – | – | – | – | ethyl 4–(2,4-dimethoxyphenyl)-6-methyl-2-thioxo-1,2,3,6-tetrahydropyrimidine-5-carboxylate [Compound 1] | – | – | % viability ([4]; 0.4ug): 81.002%; % viability ([4]; 1.6ug): 67.624%; % viability ([4]; 6.3ug): 61.271%; % viability ([4]; 25ug): 51.07%; % viability ([4]; 100ug): 44.533% |

| Compound | melting point [°C] | %inh TOPO II ([3]; conc 0.1 (μM)) [%] | %inh TOPO II ([3]; conc 1 (μM)) [%] | %inh TOPO II ([3]; conc 10 (μM)) [%] | %inh TOPO II ([3]; conc 100 (μM)) [%] | IC50 [3] [nM] | IC50 [1, 5] [nM] | IC50 [2, 6] [nM] | other results |
| --- | --- | --- | --- | --- | --- | --- | --- | --- | --- |
| COc1cccc2c1C(=O)c1c(O)c3c(c(O)c1C2=O)C[C@@](O)(C(=O)CO)C[C@@H]3O[C@H]1C[C@H](N)[C@H](O)[C@H](C)O1 [Doxorubicin, reference compound] | – | 30 | 51 | 77 | 90 | – | – | – | IC50 ([1]; read-out: Cytotoxicity IC50 A549± SD): 13 nM; IC50 ([2]; read-out: Cytotoxicity IC50 A498± SD): 7 nM |
